SMILES strings stand for the structures. Read-outs that look alike come from different tables or passages of the source.

One data set relates to elastin. Kind of data set: Elastin anti-glycation assay kit. It counts as biochemical. The note with it: for IC50: sample dissolved in DMSO, read-out: IC50 value, inhibition effect on the glycation reaction of elastin. As for the experimental part: (§1) To evaluate the anti-glycation activity of saclipin A and saclipin B, the effect on glycation of elastin and collagen was investigated.
(§2) The effect of saclipin on the glycation of elastin and collagen was evaluated using an elastin anti-glycation assay kit (product number: AAS-AGE-K05, Cosmo Bio Co., Ltd.) and a collagen anti-glycation assay kit (product number: AK71, Cosmo Bio Co., Ltd.), respectively. The assay was performed according to the manufacturer's protocol using saclipin A and saclipin B purified from Suizenji-nori. However, since saclipin was not dissolved in the attached aqueous buffer solution, it was dissolved in dimethyl sulfoxide (DMSO) and subjected to an experiment. The final reaction concentration of the sample was adjusted to 0 mM, 0.5 mM, 1.0 mM, 2.0 mM, and 4.0 mM.

The test system of another data set is PSVK1 cells. Nature of the data set: MTT test on human keratinocytes (biocompatibility test). The data set is classed as cell-based. The conditions noted are these: compared with 1% ethanol control; for appearance of cells (microphotographs): 10.0 µM; for cytotoxicity (cell viability, MTT): 0.1 to 10.0 µM. As for the experimental part: (§3) In order to examine the cytotoxicity of saclipin A and saclipin B, MTT tests were performed on (1) neonatal human dermal fibroblasts and (2) human keratinocytes.
(§4) The neonatal human dermal fibroblasts (NHDF) were purchased from ATCC. The neonatal human dermal fibroblasts were seeded in 96-well plates at 1×10^4 cells/well. Neonatal human dermal fibroblasts were cultured overnight at 37°C, 5% CO2 using Dulbecco's modified eagle medium (DMEM) in which 10% fetal bovine serum, […], and 10 mM HEPES were added to DMEM. 0.1 µM, 0.36 µM, 1.0 µM, 3.6 µM, and 10.0 µM of saclipin A or saclipin B were added to each cell. As a control, 1% ethanol was added to the cells. Next, 0.5 mg/mL MTT(3-(4,5-dimethylthiazole-2-yl)-2,5-diphenyltetrazolium bromide) was added, and the mixture was cultured for 20 hours at 37°C, 5% CO2. The whole formazan crystals were dissolved in dimethyl sulfoxide (DMSO), and then the absorbance of each sample solution was measured at 540 nm to determine the cell viability.
PSVK1 cells (JCRB1093, JCRB Cell Bank, National Institute of Biomedical Innovation, Health and Nutrition, Japan) were used as human keratinocytes. In this test, the test was carried out in the same manner as in "(1) MTT test on neonatal human dermal fibroblasts" described above except that the cells were cultured using a keratinocyte medium (Thermo Fisher Scientific) supplemented with 0.05 mg/mL bovine pituitary extract, 0.005 µg/mL epidermal growth factor, 100 units/mL penicillin, and 100 µg/mL streptomycin (Gibco).
The upper part of Fig. 13 is a graph showing the results of cell viability (cell viability, %). The labels on the horizontal axis represent each sample corresponding to each bar graph. For example, the labels "saclipin A" "10.00" represent that the cells were treated with 10.0 µM saclipin A. The vertical axis represents the cell viability when the cell viability of cells treated with 1% ethanol is taken as 100%.
Background: Tetrazolium assays rely on reduction of a dye to a coloured formazan, in cell work by metabolically active cells.

The nature of data set [1]: Measurement of ABTS radical scavenging activity. The data set is classed as biochemical. The note with it: for IC50: ABTS method, room temperature, dark; for β/α value: IC50 after 40 minutes (β) divided by IC50 after 20 minutes (α), ABTS radical scavenging. As for the experimental part: To evaluate the antioxidant activity of saclipin A and saclipin B, 2,2-azino-bis(3-ethylbenzothiazoline-6-sulfonic acid) diammonium salt (ABTS) radical scavenging activity was measured.
The ABTS radical solution was diluted with ethanol such that the absorbance at 734 nm was about 1.0. 50 µL of this diluted ABTS radical solution and 50 µL of the test sample ethanol solution were mixed, and the mixed reactant was held at room temperature for 20 or 40 minutes in the dark, then the absorbance was measured at 734 nm. […] Ascorbic acid and Trolox were used as standard samples. Inhibition rates were calculated using the following equation. Inhibition activity (%) = ((Ab−As)/Ab) × 100 [formula]
Here, Ab and As represent the absorbances of the blank sample and the test sample, respectively.

The subject of the next data set is collagen. Kind of data set: Collagen anti-glycation assay kit. It counts as biochemical. The note with it: sample dissolved in DMSO; read-out: IC50 value, inhibition effect on glycation of collagen. As for the experimental part: as §1, §2
A short description of data set [2]: Time course experiment of ABTS radical scavenging (temporal change in antioxidant activity). The note with it: recorded for 2900 seconds at 25°C, 734 nm; saclipin A 0.60 mM, saclipin B 0.18 mM, ascorbic acid 6 µM, Trolox 6 µM. The data set is classed as biochemical. As for the experimental part:
A 7 mM ABTS aqueous solution and a 2.45 mM potassium persulfate aqueous solution were mixed at 25°C for 16 hours in the dark to prepare an ABTS radical solution. The ABTS radical solution was diluted with ethanol such that the absorbance at 734 nm was about 1.0. 50 µL of this diluted ABTS radical solution and 50 µL of the test sample ethanol solution were mixed, and the mixed reactant was held at room temperature for 20 or 40 minutes in the dark, then the absorbance was measured at 734 nm. The final reaction concentration of the sample was adjusted to 0 mM, 0.06 mM, 0.12 mM, 0.18 mM, 0.24 mM, 0.30 mM, 0.60 mM, 1.20 mM, and 1.80 mM. Ascorbic acid and Trolox were used as standard samples. Inhibition rates were calculated using the following equation. Inhibition activity (%) = ((Ab−As)/Ab) × 100 [formula]
Therefore, the temporal change of radical scavenging was measured by a time course experiment. In the time course experiment, the decrease in absorbance after addition of the test sample was recorded continuously for 2900 seconds at 25°C and 734 nm. In the time course experiment, the final reaction concentrations of saclipin A, saclipin B, ascorbic acid, and Trolox were adjusted to 0.60 mM, 0.18 mM, 6 µM, and 6 µM, respectively.

A short description of data set [3]: Photoisomerization by light irradiation, HPLC analysis. The data set is classed as physicochemical. The conditions noted are these: for time for which the amount ratio of saclipin A and saclipin B did not change: dark treatment after light irradiation. As for the experimental part: Saclipin A purified from dried Suizenji-nori was dissolved in methanol, ethanol or acetonitrile, and the solution was irradiated with light of 6000 lux under a white fluorescent lamp for 24 hours or longer. Thereafter, HPLC analysis was performed under the following measurement conditions to calculate the amounts of saclipin A and saclipin B, and the isomerization rate of saclipin A was calculated. The chromatogram of the saclipin A solution before light irradiation is shown on the left in Fig. 6, and the chromatogram of the saclipin A solution after light irradiation is shown on the right in Fig. 6.
• Detection wavelength: 320 nm • Column: Inerteil ODS-P 3 µm, 4.6×33 + 4.6×150 mm • Eluent: 50% Acetonitrile (isocratic)

Data set [4] relates to neonatal human dermal fibroblasts (NHDF). Kind of data set: MTT test on neonatal human dermal fibroblasts (biocompatibility test). It counts as cell-based. The note with it: compared with 1% ethanol control; for appearance of cells (microphotographs): 10.0 µM; for cytotoxicity (cell viability, MTT): 0.1 to 10.0 µM. As for the experimental part:
as §3, §4
The upper part of Fig. 12 is a graph showing the results of cell viability (%). The labels on the horizontal axis represent each sample corresponding to the bar graph. For example, the labels "saclipin A" "10.00" represent that the cells were treated with 10.0 µM saclipin A. The vertical axis represents the cell viability when the cell viability of cells treated with 1% ethanol is taken as 100%.

Data set [5] in a line: Absorption spectrum analysis (ultraviolet absorption). The data set is classed as physicochemical. The conditions noted are these: methanol solution; for Molar absorption coefficient: at the absorption maximum. As for the experimental part: The obtained dried sample was dissolved in methanol, and subjected to absorption spectrum analysis, high-resolution mass spectrometry, and measurement of ^1H and ^13C-NMR spectra. In each graph of Fig. 3, the horizontal axis represents wavelength (nm), and the vertical axis represents relative absorbance.
The absorption spectra of "saclipin A (Sac A)", "saclipin B (Sac B)", "methyl-esterified saclipin A (Sac A_methyl ester)", and "methyl-esterified saclipin B (Sac B_methyl ester)" were acquired by the method described in "2. Structure determination of saclipin A and saclipin B" described above. In each graph of Fig. 11, the horizontal axis represents wavelength (nm), and the vertical axis represents relative absorbance. The maximum point of saclipin A was 317 nm. The maximum point of methyl-esterified saclipin A was 316 nm. The maximum point of saclipin B was 319 nm. The maximum point of methyl-esterified saclipin B was 319 nm.

The mark [6] stands for this setting: reaction time 20 min, read-out: IC50 value (µM) 20 min.
The mark [7] stands for this setting: reaction time 40 min, read-out: IC50 value (µM) 40 min.

As usually defined, the IC50 is the midpoint of a concentration-inhibition curve. On to `CCC(=O)/C=C/C=C/C=C/C(=O)CCCCCCCC(=O)O` [saclipin A, (10E,12E,14E)-9,16-Dioxooctadeca-10,12,14-trienoic acid], for which the IC50 in the data set with elastin came to 2500 µM; in data set [1] (setting [6]), 974 µM; in data set [1] (setting [7]), 717 µM; in the data set with collagen, 1900 µM. In addition, the “appearance of cells (microphotographs)” value (with PSVK1 cells; in data set [4]) was “no abnormality was observed” throughout. In addition, the “cytotoxicity (cell viability, MTT)” value (in the data set with PSVK1 cells; in data set [4]) was “not higher than that of 1% ethanol at any concentration” each time. The compound also displayed a β/α value in data set [1] of 0.78. In data set [2], the “temporal change of radical scavenging” value is recorded as “proceeded even after 2900 seconds”. The “time for which the amount ratio of saclipin A and saclipin B did not change” value in data set [3] was “at least 96 hours”. For the same compound, the “dissolved saclipin A converted to saclipin B” value in data set [3] (methanol, ethanol or acetonitrile, 6000 lux white fluorescent lamp, 24 hours or longer) is recorded as “About 90%”. In addition, the Molar absorption coefficient in data set [5] is listed as 26,454 M^-1cm^-1. Besides, the Absorption maximum in data set [5] was determined as 317 nm; in data set [5] (listed as Saclipin A), 316 nm.
As for `CCC(=O)/C=C/C=C\C=C\C(=O)CCCCCCCC(=O)O` [saclipin B, (10E,12Z,14E)-9,16-Dioxooctadeca-10,12,14-trienoic acid], the “glycation reaction inhibited (elastin)” value in the data set with elastin (concentration of 4 mM) was “about 45%”. The “appearance of cells (microphotographs)” value (in the data set with PSVK1 cells; in data set [4]) was “no abnormality was observed” in each case. Moreover, the “cytotoxicity (cell viability, MTT)” value (with PSVK1 cells; in data set [4]) was “not higher than that of 1% ethanol at any concentration” each time. The IC50 in data set [1] (setting [6]) was 182 µM; in data set [1] (setting [7]), 142 µM; in the data set with collagen, 900 µM. For the same compound, the β/α value in data set [1] is given as 0.74. For the same compound, the “temporal change of radical scavenging” value in data set [2] is recorded as “proceeded even after 2900 seconds”. In data set [3], the “time for which the amount ratio of saclipin A and saclipin B did not change” value is recorded as “at least 96 hours”. In addition, the Molar absorption coefficient in data set [5] was 30,555 M^-1cm^-1. In addition, in data set [5], the Absorption maximum came to 319 nm.
In the case of `O=C1O[C@H]([C@@H](O)CO)C(O)=C1O` [Ascorbic acid, reference compound], the IC50 worked out at 7.9 µM in data set [1] (setting [6]) and 7.5 µM in data set [1] (setting [7]). In addition, in data set [1], the β/α value stood at 0.95. In addition, the “temporal change of radical scavenging” value in data set [2] is listed as “hardly functioned after a radical scavenging reaction occurred immediately after addition”.
For the compound `N=C(N)NN` [aminoguanidine, reference compound], the IC50 worked out at 1500 µM in the data set with elastin and 2400 µM with collagen.
As to `Cc1c(C)c2c(c(C)c1O)CCC(C)(C(=O)O)O2` (centres unmarked) [Trolox, 6-hydroxy-2,5,7,8-tetramethylchroman-2-carboxylic acid, reference compound], the half-inhibitory concentration (IC50) in data set [1] (setting [6]) and in data set [1] (setting [7]) was 6.7 µM throughout. The β/α value in data set [1] is recorded as 1.00. The “temporal change of radical scavenging” value in data set [2] is recorded as “hardly functioned after a radical scavenging reaction occurred immediately after addition”.

Values taken from EP4748903A1, “ULTRAVIOLET ABSORBER, ANTIOXIDANT, ANTI-GLYCATION AGENT, EXTERNAL PREPARATION FOR SKIN, COSMETIC, METHOD FOR PRODUCING COMPOUND, AND COMPOUND” (Meijo University, priority 2023, dated 2025).
